Patent US5972939A, “Cyclopentene derivatives useful as antagonists of the motilin receptor” (Ortho-McNeil Pharmaceutical, Inc., priority 1998, dated 1999)

target: T1, motilin receptors located on the colon of mature rabbits (Oryctolagus cuniculus, UniProt G1T803); experiment: competition with radiolabeled (125I) porcine motilin for the motilin receptors of rabbit colon; assay type: binding; details: @ 0.04 μM
T1 construct: The colon from mature New Zealand rabbits was removed, dissected free from the mucosa and serosa layers, and diced into small pieces; from tissue; host or cells: colon smooth muscle of mature New Zealand rabbits, crude membrane homogenate
T1 sequence (G1T803 1-400): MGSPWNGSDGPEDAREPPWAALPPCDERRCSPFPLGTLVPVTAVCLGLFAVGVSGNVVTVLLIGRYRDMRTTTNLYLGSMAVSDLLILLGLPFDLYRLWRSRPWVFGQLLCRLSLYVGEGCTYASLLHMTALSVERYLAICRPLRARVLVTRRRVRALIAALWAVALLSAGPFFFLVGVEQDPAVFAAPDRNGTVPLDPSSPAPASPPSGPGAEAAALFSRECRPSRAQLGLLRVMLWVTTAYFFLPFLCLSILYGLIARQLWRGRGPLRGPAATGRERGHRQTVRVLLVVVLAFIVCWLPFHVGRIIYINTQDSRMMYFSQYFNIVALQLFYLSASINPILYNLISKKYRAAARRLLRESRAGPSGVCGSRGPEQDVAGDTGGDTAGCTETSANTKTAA
Protocol: The compounds of the invention were tested for their ability to compete with radiolabeled motilin (porcine) for the motilin receptors located on the colon of mature rabbits. The colon from mature New Zealand rabbits was removed, dissected free from the mucosa and serosa layers, and diced into small pieces. […] The homogenate was centrifuged at 1000×g for 15 min. and the supernatant discarded. The pellet was washed twice before being suspended in homogenizing buffer. This crude homogenate is then passed first through a 19 gauge needle then a 23 gauge needle to further suspend the material and stored as -80° C. […] After 30 min, at 30° C., the material was cooled on ice and centrifuged at 13,000×g for 1 minute. The pellet was washed with 1 mL 0.9% saline and centrifuged at 13,000×g for 15 seconds. The pellet was washed again with cold saline and the supernatant was removed. The pellet was counted in the gamma counter to determine the percentage of […] motilin and thereby the percent inhibition of the test compound. IC50s were determined for some compounds by standard techniques.

Row | inhibition at 0.04 µM | SMILES
1 | 43% | O=C(c1ccc(F)cc1)N(CC1=CC(Cc2ccc(F)cc2)(NC(=O)C(Cl)(Cl)Cl)CC1)c1cccc(OCCN2CCOCC2)c1 (stereo not shown) [Compound 125]
2 | 44% | O=C(c1cccc(F)c1)N(CC1=CC(Cc2ccc(F)cc2)(NC(=O)C(Cl)(Cl)Cl)CC1)c1cccc(OCCN2CCOCC2)c1 (stereo not shown) [Compound 126]

same assay, conditions: @ 0.1 μM

Row | SMILES | inhibition at 0.1 µM
3 | O=C(c1cc(F)cc(F)c1)N(CC1=CC(Cc2ccccc2)(NC(=O)C(Cl)(Cl)Cl)CC1)c1cccc(OCCN2CCOCC2)c1 (stereo not shown) [Compound 106] | 78%
4 | O=C(c1ccc([N+](=O)[O-])cc1)N(CC1=CC(Cc2ccccc2)(NC(=O)C(Cl)(Cl)Cl)CC1)c1cccc(OCCN2CCOCC2)c1 (stereo not shown) [Compound 116] | 69%
5 | O=C(c1ccc(F)c(F)c1)N(CC1=CC(Cc2cccc(Cl)c2)(NC(=O)C(Cl)(Cl)Cl)CC1)c1cccc(OCCN2CCOCC2)c1 (stereo not shown) [Compound 130] | 78%

Continued, values first:

Row | inhibition at 0.1 µM | SMILES
6 | 61% | O=C(c1ccc(Cl)cc1)N(CC1=CC(Cc2ccccc2)(NC(=O)C(Cl)(Cl)Cl)CC1)c1cccc(OCCN2CCOCC2)c1 (stereo not shown) [Compound 102]
7 | 52% | O=C(c1cccc(C(F)(F)F)c1)N(CC1=CC(Cc2ccccc2)(NC(=O)C(Cl)(Cl)Cl)CC1)c1cccc(OCCCN2CCOCC2)c1 (stereo not shown) [Compound 103]
8 | 29% | O=C(c1ccc(C(F)(F)F)cc1)N(CC1=CC(Cc2ccccc2)(NC(=O)C(Cl)(Cl)Cl)CC1)c1cccc(OCCN2CCOCC2)c1 (stereo not shown) [Compound 104]
9 | 59% | O=C(c1ccc(I)cc1)N(CC1=CC(Cc2ccccc2)(NC(=O)C(Cl)(Cl)Cl)CC1)c1cccc(OCCN2CCOCC2)c1 (stereo not shown) [Compound 105]
10 | 40% | O=C(c1cccc2ccccc12)N(CC1=CC(Cc2ccccc2)(NC(=O)C(Cl)(Cl)Cl)CC1)c1cccc(OCCN2CCOCC2)c1 (stereo not shown) [Compound 124]
11 | 33% | O=C(Nc1ccccc1)N(CC1=CC(NC(=O)C(Cl)(Cl)Cl)(c2ccccc2)CC1)c1cccc(OCCN2CCOCC2)c1 (stereo not shown) [Compound 127]
12 | 43% | O=C(c1ccc(F)cc1)N(CC1=CC(NC(=O)C(Cl)(Cl)Cl)(c2ccccc2)CC1)c1cccc(OCCN2CCOCC2)c1 (stereo not shown) [Compound 128]
13 | 70% | O=C(c1ccc(Br)cc1)N(CC1=CC(Cc2cccc(Cl)c2)(NC(=O)C(Cl)(Cl)Cl)CC1)c1cccc(OCCN2CCOCC2)c1 (stereo not shown) [Compound 129]

same assay, conditions: @ 1.0 μM

Row | SMILES | inhibition at 1 µM
14 | CC(C)(C)c1ccc(C(=O)N(CC2=CC(Cc3ccccc3)(NC(=O)C(Cl)(Cl)Cl)CC2)c2cccc(OCCN3CCOCC3)c2)cc1 (stereo not shown) [Compound 110] | 19%
15 | O=C(c1cccc(F)c1)N(CC1=CC(Cc2ccccc2)(NC(=O)C(Cl)(Cl)Cl)CC1)c1cc(OCCN2CCOCC2)ccc1Cl (stereo not shown) [Compound 113] | 59%
16 | O=C(C(c1ccccc1)c1ccccc1)N(CC1=CC(Cc2ccccc2)(NC(=O)C(Cl)(Cl)Cl)CC1)c1cccc(OCCN2CCOCC2)c1 (stereo not shown) [Compound 117] | 42%
17 | O=C(Oc1ccccc1)N(CC1=CC(Cc2ccccc2)(NC(=O)C(Cl)(Cl)Cl)CC1)c1cccc(OCCN2CCOCC2)c1 (stereo not shown) [Compound 118] | 51%
18 | O=C(NC1CCCCC1)N(CC1=CC(Cc2ccccc2)(NC(=O)C(Cl)(Cl)Cl)CC1)c1cccc(OCCN2CCOCC2)c1 (stereo not shown) [Compound 119] | 56%
19 | CC(C)C1(NC(=O)C(Cl)(Cl)Cl)C=C(CN(C(=O)Nc2ccccc2)c2cccc(OCCN3CCOCC3)c2)CC1 (stereo not shown) [Compound 123] | 51%
20 | O=C(Nc1ccccc1)N(CC1=CC(Cc2ccccc2)(NC(=O)C(F)(F)F)CC1)c1cccc(OCCN2CCOCC2)c1 (stereo not shown) [Compound 134] | 69%
21 | O=C(Nc1ccccc1)N(CC1=CC(Cc2ccccc2)(NC(=O)C(Cl)(Cl)Cl)CC1)c1cccc(OCC[N+]2([O-])CCOCC2)c1 (stereo not shown) [Compound 136] | 57%
22 | O=C(c1ccc(Br)cc1)N(CC1=CC(Cc2ccccc2)(NC(=O)C(Cl)(Cl)Cl)CC1)c1cccc(OCC[N+]2([O-])CCOCC2)c1 (stereo not shown) [Compound 137] | 50%
23 | O=C(c1ccc(-c2ccccc2)cc1)N(CC1=CC(Cc2ccccc2)(NC(=O)C(Cl)(Cl)Cl)CC1)c1cccc(OCCN2CCOCC2)c1 (stereo not shown) [Compound 1407] | 58%

Further lines, results first:

Row | inhibition at 1 µM | SMILES
24 | 84% | O=C(c1cccs1)N(CC1=CC(Cc2ccccc2)(NC(=O)C(Cl)(Cl)Cl)CC1)c1cccc(OCCN2CCOCC2)c1 (stereo not shown) [Compound 108]
25 | 51% | O=C(c1ccncc1)N(CC1=CC(Cc2ccccc2)(NC(=O)C(Cl)(Cl)Cl)CC1)c1cccc(OCCN2CCOCC2)c1 (stereo not shown) [Compound 111]
26 | 51% | O=C(Nc1cccc(Br)c1)N(CC1=CC(Cc2ccccc2)(NC(=O)C(Cl)(Cl)Cl)CC1)c1cccc(OCCN2CCOCC2)c1 (stereo not shown) [Compound 112]
27 | 65% | O=C(c1sccc1Br)N(CC1=CC(Cc2ccccc2)(NC(=O)C(Cl)(Cl)Cl)CC1)c1cccc(OCCN2CCOCC2)c1 (stereo not shown) [Compound 115]
28 | 77% | O=C(c1ccc2c(c1)OCO2)N(CC1=CC(Cc2ccccc2)(NC(=O)C(Cl)(Cl)Cl)CC1)c1cccc(OCCN2CCOCC2)c1 (stereo not shown) [Compound 122]
29 | 51% | CC(=O)NC1(Cc2ccccc2)C=C(CN(C(=O)c2ccc(F)cc2)c2cccc(OCCN3CCOCC3)c2)CC1 (stereo not shown) [Compound 133]

same assay, conditions: @ 10 μM

Row | SMILES | inhibition at 10 µM
30 | O=C(NC1(Cc2ccccc2)C=C(CNc2cccc(OCCN3CCOCC3)c2)CC1)C(F)(F)F (stereo not shown) [Compound 131] | 25%

same assay, conditions: @ 100 μM

Row | inhibition at 100 µM | SMILES
31 | 52% | O=C(c1ccc(F)c(F)c1)N(CC1=CC(Cc2ccccc2)(NC(=O)C(Cl)(Cl)Cl)CC1)c1cc(OCCN2CCOCC2)ccc1Cl (stereo not shown) [Compound 114]

same assay, conditions: rabbit colon, 125I motilin; read-out: IC50

Row | SMILES | IC50
32 | O=C(Nc1ccccc1)N(CC1=CC(Cc2ccccc2)(NC(=O)C(Cl)(Cl)Cl)CC1)c1cccc(OCCN2CCOCC2)c1 (stereo not shown) [Compound 7, 3-Benzyl-3-trichloroacetylamino-1-(N-phenylaminocarbonyl)-N-[(3-(2-morpholinoethoxy)phenyl)amino]methylcyclopentene] | 45 nM
33 | O=C(Nc1ccccc1)N(CC1=CC(Cc2ccccc2)(NC(=O)C(Cl)(Cl)Cl)CC1)c1cccc(OCCN2CCOCC2)c1 (stereo not shown) [Compound 8] | 20 nM
34 | O=C(Nc1ccccc1)N(CC1=CC(Cc2ccccc2)(NC(=O)C(Cl)(Cl)Cl)CC1)c1cccc(OCCN2CCOCC2)c1 (stereo not shown) [Compound 9, 3-Benzyl-3-trichloroacetylamino-1-(N-phenylaminocarbonyl)-N-[(3-(2-morpholinoethoxy)phenyl)amino]methylcyclopentene] | > 300 nM

Second part, the molecule after the results:

Row | IC50 | SMILES
35 | 98 nM | N#Cc1ccc(C(=O)N(CC2=CC(Cc3ccccc3)(NC(=O)C(Cl)(Cl)Cl)CC2)c2cccc(OCCN3CCOCC3)c2)cc1 (stereo not shown) [Compound 109]
36 | 10 nM | O=C(Nc1ccc(F)cc1)N(CC1=CC(Cc2cccc(Cl)c2)(NC(=O)C(Cl)(Cl)Cl)CC1)c1cccc(OCCN2CCOCC2)c1 (stereo not shown) [Compound 120]
37 | 30 nM | O=C(c1ccc(F)cc1)N(CC1=CC(Cc2cccc(Cl)c2)(NC(=O)C(Cl)(Cl)Cl)CC1)c1cccc(OCCN2CCOCC2)c1 (stereo not shown) [Compound 121]

same assay, conditions: rabbit colon, 125I motilin; read-out: IC50 (unit inferred)

Row | IC50 | SMILES
38 | 300 nM | O=C(c1ccccc1)N(CC1=CC(Cc2ccccc2)(NC(=O)C(Cl)(Cl)Cl)CC1)c1cccc(OCCN2CCOCC2)c1 (stereo not shown) [Compound 10, 3-Benzyl-3-trichloroacetylamino-1-(N-phenylcarbonyl)-N-[(3-(2-morpholinoethoxy)phenyl)amino]methylcyclopentene]

system: rabbit duodenum smooth muscle (motilin and erythromycin induced contractions); experiment: inhibition of motilin (porcine) induced contractions in rabbit duodenum smooth muscle; assay type: cell-based; details: Oryctolagus cuniculus, rabbit duodenum strips, porcine motilin; read-out: IC50
Protocol: Select compounds of the invention were evaluated for their ability to inhibit motilin and erythromycin induced contractions in the rabbit duodenum smooth muscle. Rabbits were fasted 24-48 h and euthanized. The venral midline incision was made approximately 7.5 cm above the umbilicus upto the xyphoid process, exposing the upper peritoneal cavity. The first 8 cm. of the duodenum starting at the pyloric valve was quickly removed and placed in Krebs solution containing NaCl, ([…]), KCl (4.7 mM), MgSO4 *7 H2 O (1.2 mM), CaCl2 *2 H2 O (2.4 mM), KH2 PO4 (1 mM), D-glucose (10 mM), and NaHCO3 (24 mM). The lumen was flushed with Krebs and excess tissue was removed. The tissue was cut lengthwise, splayed open with the longitudinal muscle layer facing up, and the longitudinal muscle layer was released away from the circular muscle and cut into 3×30 mm strips. A pre-tied 4-0 silk ligature with a loop was placed at the middle of the strip and the strip was folded over the loop so the strip was half its original length. The tissues were mounted in a 10 mL tissue bath (Radnotti Glass Technology, Inc., Monrovia, Calif.) containing Krebs solution gassed with 95% O2 5% CO2 at 37° C. […] The tissues were allowed to equilibrate for 60-90 min with 2-3 wash cycles. The tissues were equilibrated with two initial contractions induced by a concentration of acetylcholine (1×10^-4 M) that produced a maximal contraction (0.1 mM), with the highest taken as 100% maximall contraction of that tissue. Base line and response levels are expressed as grams tension developed and as a percent of the response to acetylcholine. The test compounds were dissolved in DMSO (2 mM/100% DMSO) and applied to the prepared strips 5-15 minutes prior to the addition of porcine motilin. After addition, the tension is constantly monitored over 5 min and the maximum tension is recorded. The percent contraction was measured at four ascending concentrations and where appropriate IC50s were determined.

Row | IC50 | SMILES
39 | 393 nM | O=C(c1ccccc1)N(CC1=CC(Cc2ccccc2)(NC(=O)C(Cl)(Cl)Cl)CC1)c1cccc(OCCN2CCOCC2)c1 (stereo not shown) [Compound 10, 3-Benzyl-3-trichloroacetylamino-1-(N-phenylcarbonyl)-N-[(3-(2-morpholinoethoxy)phenyl)amino]methylcyclopentene]

same assay, conditions: Oryctolagus cuniculus; @ 5 μM

Row | SMILES | inhibition at 5 µM
40 | CCN(CC)CCOc1cccc(N(CCN(CC)CC)CC2=CC(Cc3ccccc3)(NC(=O)C(Cl)(Cl)Cl)CC2)c1 (stereo not shown) [Compound 51] | 74%

same assay, conditions: rabbit duodenum strips, porcine motilin; read-out: IC50

Row | IC50 | SMILES
41 | 287 nM | O=C(Nc1ccccc1)N(CC1=CC(Cc2ccccc2)(NC(=O)C(Cl)(Cl)Cl)CC1)c1cccc(OCCN2CCOCC2)c1 (stereo not shown) [Compound 7, 3-Benzyl-3-trichloroacetylamino-1-(N-phenylaminocarbonyl)-N-[(3-(2-morpholinoethoxy)phenyl)amino]methylcyclopentene]
42 | 280 nM | O=C(Nc1ccccc1)N(CC1=CC(Cc2ccccc2)(NC(=O)C(Cl)(Cl)Cl)CC1)c1cccc(OCCN2CCOCC2)c1 (stereo not shown) [Compound 8]
43 | 890 nM | O=C(Nc1ccccc1)N(CC1=CC(Cc2ccccc2)(NC(=O)C(Cl)(Cl)Cl)CC1)c1cccc(OCCN2CCOCC2)c1 (stereo not shown) [Compound 9, 3-Benzyl-3-trichloroacetylamino-1-(N-phenylaminocarbonyl)-N-[(3-(2-morpholinoethoxy)phenyl)amino]methylcyclopentene]
